Molecular target: GAR formyltransferase (Lactobacillus casei)
Assay: Inhibition of the GAR formyl transferase in lactobacillus casei

IC50: > 20 µM
Compound: CC(Cc1ccc(C(=O)NC(CCC(=O)O)C(=O)O)cc1)Cc1cnc2nc(N)[nH]c(=O)c2n1 (stereo unspecified)
